Data reported in ChEMBL document CHEMBL5244259, “Azithromycin: The First Broad-spectrum Therapeutic” (Eur J Med Chem, 2020).

Legend:
A549 = experiment: Cytotoxicity against human A549 cells by MTT assay; type: functional
[1] = Selectivity index, ratio of CC50 for African green monkey Vero cells to EC50 for SARS-COV-2; type: toxicity; settings: read-out: Ratio CC50/EC50
Influenza A virus = experiment: Antiviral activity against Influenza A virus A/California/7/2009(H1N1) strain infected in A549 cells assessed as reduction in viral infection incubated for 48 hrs by qPCR analysis; type: functional, organism-based; settings: A549, 48 h
[2] = Cytotoxicity against African green monkey Vero cells by Celltiter blue assay; type: toxicity, cell-based; settings: chlorocebus sabaeus
[3] = Selectivity index, ratio of CC50 for African green monkey Vero cells to EC50 for Zaire ebolavirus infected in African green monkey Vero cells; type: toxicity; settings: read-out: Ratio CC50/EC50
[4] = Selectivity index, ratio of CC50 for African green monkey Vero cells to EC50 for Zika virus GZ01/2016 infected in African green monkey Vero cells; type: toxicity; settings: read-out: Ratio CC50/EC50
Zika virus = experiment: Antiviral activity against Zika virus GZ01/2016 infected in African green monkey Vero cells assessed as reduction in virus induced cytopathic effect preincubated with cells for 12 hrs followed by viral infection and measured after 48 hrs by qRT-PCR analysis; type: functional, organism-based; settings: GZ01/2016, Vero
SARS-CoV-2 = experiment: Antiviral activity against SARS-COV-2 infected in African green monkey Vero cells assessed as reduction in virus induced cytopathic effect preincubated with cells for 15 mins followed by viral infection and measured after 2 days by RT-PCR analysis; type: functional, organism-based; settings: Severe acute respiratory syndrome coronavirus 2, Vero
[5] = Antiproliferative against African green monkey Vero cells incubated for 40 hrs by Celltiter assay; type: toxicity, cell-based; settings: chlorocebus sabaeus
[6] = Cytotoxicity against African green monkey Vero cells by MTT assay; type: toxicity, cell-based; settings: chlorocebus sabaeus
[7] = Selectivity ratio of CC50 for human A549 cells to EC50 for Influenza A virus A/California/7/2009(H1N1) strain infected in A549 cells; type: toxicity, cell-based; settings: read-out: Ratio CC50/EC50
Zaire ebolavirus = experiment: Antiviral activity against Zaire ebolavirus infected in African green monkey Vero cells assessed as reduction in virus induced cytopathic effect preincubated with cells for 1 hr followed by viral infection and measured after 48 hrs; type: functional, organism-based
dengue virus type 2 = experiment: Antiviral activity against Dengue virus 2 infected in African green monkey Vero cells assessed as reduction in virus induced cytopathic effect preincubated with cells for 12 hrs followed by viral infection and measured after 48 hrs by qRT-PCR analysis; type: functional, organism-based
[8] = Selectivity index, ratio of CC50 for African green monkey Vero cells to EC50 for Dengue virus 2 infected in African green monkey Vero cells; type: toxicity; settings: read-out: Ratio CC50/EC50
[9] = Antiproliferative against African green monkey Vero cells; type: toxicity, cell-based; settings: chlorocebus sabaeus

SMILES: CC[C@H]1OC(=O)[C@H](C)[C@@H](O[C@H]2C[C@@](C)(OC)[C@@H](O)[C@H](C)O2)[C@H](C)[C@@H](O[C@@H]2O[C@H](C)C[C@H](N(C)C)[C@H]2O)[C@](C)(O)C[C@@H](C)CN(C)[C@H](C)[C@@H](O)[C@]1(C)O [AZITHROMYCIN]
- CC50 (A549): > 600 µM
- selectivity ratio [1]: > 19
- EC50 (Influenza A virus): 68 µM
- CC50 [2]: > 40 µM
- selectivity ratio [3]: > 25
- selectivity ratio [4]: 123
- EC50 (Zika virus): 6.59 µM
- EC50 (SARS-CoV-2): 2.12 µM
- EC90 (SARS-CoV-2; 48.25 h, time 2895 min): 8.65 µM
- CC50 at 40 h [5]: 810 µM
- CC50 [6]: > 130 µM
- selectivity ratio [7]: > 8.8
- EC50 (Zaire ebolavirus): 5.1 µM
- EC50 (dengue virus type 2): 3.71 µM
- selectivity ratio [8]: 218
- CC50 [9]: 810 µM
